Source: a melting point compilation (Tetko et al.)

Row | SMILES | melting point [°C]
1 | Cc1cccc2c1C(=O)OC2=O | 116
2 | NC(=NO)c1ccc(C(F)(F)F)cc1 | 125 to 128
3 | CC(C)(C)c1cc(C(C)(C)C)c(O)c(C(C)(C)C)c1 | 131
4 | Brc1cccc2c(/C=N/Nc3ccccc3)cccc12 | 105
5 | Nc1cscc1S(=O)(=O)c1ccccc1 | 125 to 126
6 | CC(=O)Nc1ccc(Br)c(C(=O)O)c1 | 186 to 188
7 | CC1Cc2ccccc2CC1C (stereo not drawn) | -5
8 | Cn1cc(Br)c(-c2cccc(N)c2)n1 | 95 to 97
9 | c1cc2c(c(NC3=NCCN3)c1)CCCC2 | 142
10 | Cc1ncc(C=O)n1C | 76 to 77
11 | Clc1ccc(-c2cn3c(n2)sc2ccccc23)cc1 | 158 to 160
12 | Nc1ccc(Oc2ccc(Br)cc2)nc1 | 107 to 109
13 | Cn1nc(-c2ccc(Cl)cc2)cc1N | 150 to 152
14 | c1ccc(C(c2ccccc2)c2ccccn2)cc1 | 54 to 61
15 | CC1=NN(c2ccc(S(=O)(=O)O)cc2)C(=O)C1 | 300
16 | O=Cc1ccc(-c2ccc(C(F)(F)F)cc2Cl)o1 | 86 to 87
17 | c1cc2c(nn1)CCc1nonc1-2 | 108 to 110
18 | O=C(c1ccccc1)C(Br)c1ccccc1 (stereo not drawn) | 53 to 58
19 | Cc1cc(C(C)(C)C)c(O)c(C)c1CC1=NCCN1 | 182
20 | CON=C(c1cc2ccccc2o1)c1cc2ccccc2o1 | 131 to 132
21 | O=C(O)c1cccc(S(=O)(=O)Oc2ccc3ccccc3c2)c1 | 155
22 | O=[N+]([O-])c1ccc(-c2nc(-c3ccccc3)c(-c3ccccc3)[nH]2)cc1 | 243 to 246

Row | SMILES | melting point [°C]
23 | CC(=O)c1ccc(C=O)s1 | 105 to 106
24 | c1cc2c3c(cccc3c1)C1=NCCN=C12 | 95
25 | CC(=O)Oc1ccc(OC(C)=O)c(C(C)(C)C)c1 | 64.5 to 65.5
26 | CN(C)C(CSC(N)=O)CSC(N)=O | 188
27 | Nc1ccc(Cl)cc1C(=O)NCc1cccs1 | 157 to 158
28 | N#CCc1ccc(Oc2ccc([N+](=O)[O-])cn2)cc1 | 118 to 119
29 | Cc1ncsc1C | 83.5
30 | O=C(/C=C/c1ccco1)c1ccc(O)cc1 | 163
31 | O=S1(=O)CCN(Cc2ccccc2)CC1 | 85 to 86
32 | COc1ccc(N/C=C2\C(=O)C3(C)CCC2C3(C)C)cc1 (stereo not drawn) | 171
33 | COc1ccc(F)cc1C#N | 117
34 | CC(=O)NC1C2CCC(C)(C1NC(C)=O)C2(C)C (stereo not drawn) | 309
35 | O=c1oc(=O)c2cc3c(=O)oc(=O)c3cc12 | 283 to 287
36 | O=[N+]([O-])c1ccc(S(=O)(=O)Oc2ccccc2)cc1 | 114 to 116
37 | Cn1cc(NC(=O)OC(C)(C)C)cc1C(=O)O | 138 to 143
38 | COc1ccc2c(c1)CC2C#N (stereo not drawn) | 48 to 56
39 | CS(=O)(=O)c1ccc2nc(N)sc2c1 | 222 to 223
40 | FC(F)(F)c1ccc(Br)cn1 | 40
41 | COc1ccc(C=C2C(=O)OC(C)(C)OC2=O)cc1OC | 164
42 | O=C(Nc1ccc(N=Nc2ccc(N=Nc3ccc(NC(=O)c4ccccc4)cc3)cc2)cc1)c1ccccc1 | 336
43 | Nc1c(C=NNc2ccccc2)ccc2c1C(=O)c1ccccc1C2=O | 209 to 211
44 | FC(F)(F)c1n[nH]c(/N=C/c2ccc(Cl)cc2)n1 | 233

Row | SMILES | melting point [°C]
45 | O=C(Nc1ccc(F)cc1)c1c(O)c(F)c(F)c(F)c1F | 130
46 | C[C@@]12CCC=C1[C@@H]1CC[C@@H]3C[C@H](O)CC[C@]3(C)[C@H]1CC2 | 129 to 130
47 | COc1ccccc1C(=O)Oc1ccc(/C=C/C(=O)c2ccccc2)cc1 | 115
48 | O=c1[nH]nc(-c2ccccc2)c2ccccc12 | 240
49 | O=C1Cc2c1cccc2[N+](=O)[O-] | 115 to 117
50 | CC(C)(C)OC(=O)N1CCCC(=O)C1 | 38
51 | COC(=O)c1c(N)sc2c1CCCC2 | 128
52 | CC(=O)OC1CC2CCC1(C)C2(C)C (stereo not drawn) | 29
53 | Cn1cnc2[nH]c(N)nc(=O)c21 | 370
54 | NC1=NCC2c3ccccc3Cc3ccccc3N12 (stereo not drawn) | 206
55 | Nc1c(Br)cc(C2CCCCC2)cc1Br | 37 to 38
56 | CS(=O)(=O)c1ccc(O)cc1 | 93
57 | FC(F)(F)C(Cl)(Cl)Cl | 14.2
58 | O=Cc1ccc(Cl)c(F)c1 | 47
59 | O=C(Nc1ccc(Cl)cc1)c1cc(Br)ccc1O | 240
60 | O=C1C(C(O)c2ccc(Cl)cc2)C(C(F)(F)F)=NN1c1ccccc1 (stereo not drawn) | 168
61 | CC1=NNC(=O)C1=NNc1ccc(Cl)cc1 | 215
62 | COC(=O)c1cc(C=O)cn1C | 100 to 101
63 | O=[N+]([O-])Nc1ccccc1 | 47.3
64 | CC(C)[C@@H]1CC[C@H](C)C[C@@H]1OC(=O)c1cccc(C(=O)O)n1 | 120
65 | CC(C)(O)C(Br)(Br)Br | 169

Next, values leading:

Row | melting point [°C] | SMILES
66 | 97 | CCCCNC(=O)NNC(=O)OCC
67 | 105 to 110 | O=C(O)CCCSSCCCC(=O)O
68 | 243 to 245 | O=C(O)c1c[nH]cn1
69 | -18 | CCCCCC#CCO
70 | 88 to 91 | NC(=S)CSc1ccccc1
71 | 49 | CC(O)CC(=O)O (stereo not drawn)
72 | 224 | Cc1c(O)ccc(O)c1C
73 | 37 to 41 | COC(=O)CCc1ccc(O)cc1
74 | -76 | CCCCC(C=O)CC (stereo not drawn)
75 | 79 | CCCCCCCCCCCCCCCCCC(=O)OCCOC(=O)CCCCCCCCCCCCCCCCC
76 | 275 | O=C(O)C(O)n1ccnc1 (stereo not drawn)
77 | 87 to 91 | CCOC(=O)c1cn2ccsc2n1
78 | 29 to 32 | C[C@H](C(=O)O)c1ccccc1
79 | 56.5 | COc1cc(CC#N)ccc1O
80 | 195 to 197 | O=C(O)CC(C(=O)O)C(CC(=O)O)C(=O)O (stereo not drawn)
81 | 40 | Cc1ccc(OCCCCBr)cc1
82 | 69.5 | OCCSCCCCCCCCCCSCCO

Row | melting point [°C] | SMILES
83 | 225 | Cn1cc(CCC(=O)O)c(=O)n(C)c1=O
84 | 252 | Cc1ccc(-c2csc(/C(C#N)=N\Nc3ccc(O)cc3)n2)cc1
85 | -74.7 | CCCC#CCCCCCC
86 | 63 | CCOC(=O)C(=CN)C(=O)OCC
87 | 148 to 149 | O=C(O)C1OC1C(=O)O (stereo not drawn)
88 | -42.5 | CCC(C)(CC)C(C)(C)C
89 | 213 | N[C@@H](Cc1cc(I)c(O)c(I)c1)C(=O)O
90 | 45 | CCCCCCCCCCCCCCCCCCCC1CCCCC1
91 | 162 to 164 | NC(=O)C(Cc1ccccc1)NC(=O)OCc1ccccc1 (stereo not drawn)
92 | 120 to 122 | Cc1cc(C(=O)CC#N)c(C)o1
93 | -55 | CCCCCCOC(=O)CCCCC
94 | 126 to 127 | CC(=O)Nc1ccc(S(=O)(=O)NCCO)cc1
95 | 225 to 229 | CC(C)(C)OC(=O)NC(Cc1ccncc1)C(=O)O (stereo not drawn)
96 | 30 to 31 | Clc1ccc(OCCCCBr)cc1
97 | 175 | O=C(O)c1cc(I)ccc1Br
98 | 119 to 125 | O=C(O)C(Br)=C(Br)C(=O)O
